# Tested on: Acinetobacter baumannii (Ab23)
# Assay: MIC shift assay of antibiotics (broth microdilution)
# Assay type: cell-based
# Details: compound concentration 2 μM; fold shift of colistin MIC; nc = no changeover or no shift
# In short: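 Broth microdilution MIC shift assay against Acinetobacter baumannii. Overnight cultures in cation-adjusted Mueller Hinton broth at 37° C. were sub-cultured 1:200, grown to OD600=0.5 to 0.8, diluted to OD600=0.01, and added (50 μL) to wells holding 50 μL of 2× antibiotic stocks for a starting OD600 of 0.005. After 18 to 20 h at 37° C. with shaking, OD600 was read to obtain MICs.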
row,Molecule,"colistin MIC shift, Ab23 at (compd concentration) [x]"
1,FC(F)(F)c1ccc2c(-c3ccc4ccccc4c3)n[nH]c2c1 [compound 540],4

# Same assay, conditions: compound concentration 4 μM; fold shift of colistin MIC; nc = no changeover or no shift
row,Molecule,"colistin MIC shift, Ab23 at (compd concentration)"
1,CN(C)CCCNc1nc(-c2cc(-c3ccccc3)cc(C(F)(F)F)c2)nc2c(C(F)(F)F)cccc12 [compound 514],16x
2,CN(C)CCCNc1nc(-c2cc(Br)cc(C(F)(F)F)c2)nc2ccc(Br)cc12 [compound 515],8x
3,Clc1ccc2c(-c3cccc(-c4ccccc4)c3)n[nH]c2c1 [compound 526],1x
4,FC(F)(F)c1ccc2c(-c3ccc(Cl)c(Cl)c3)n[nH]c2c1 [compound 541],32x
5,FC(F)(F)c1ccc2c(-c3cccc(Cl)c3Cl)n[nH]c2c1 [compound 543],1x
6,Fc1cc(C(F)(F)F)ccc1-c1n[nH]c2cc(C(F)(F)F)ccc12 [compound 544],8x
7,CN(C)CCCNc1nc(-c2cn(Cc3ccccc3)c3c(Cl)cccc23)nc2c(F)cccc12 [compound 565],2-4x
8,CN(C)CCCNc1nc(-c2cn(Cc3ccccc3)c3c(Cl)cccc23)nc2c(Cl)cccc12 [compound 567],16x
9,CN(C)CCCNc1nc(-c2cn(Cc3ccccc3)c3c(Cl)cccc23)nc2c(Br)cccc12 [compound 569],8x
10,CN(C)CCCNc1nc(-c2cn(Cc3ccccc3)c3c(Cl)cccc23)nc2c(-c3ccncc3)cccc12 [compound 571],4x
11,Cc1ccc(Cn2cc(-c3nc(NCCCN(C)C)c4cccc(C)c4n3)c3cccc(Cl)c32)cc1 [compound 573],16x
12,Cc1cccc(Cn2cc(-c3nc(NCCCN(C)C)c4cccc(C)c4n3)c3cccc(Cl)c32)c1 [compound 575],16x
13,Cc1cccc2c(NCCCN(C)C)nc(-c3cn(Cc4ccc(Cl)cc4)c4c(Cl)cccc34)nc12 [compound 577],16x
14,Cc1cccc2c(NCCCN(C)C)nc(-c3cn(Cc4cccc(Cl)c4)c4c(Cl)cccc34)nc12 [compound 579],16x
15,CNCCCNc1nc(-c2cn(Cc3ccccc3)c3c(Cl)cccc23)nc2c(C)cccc12 [compound 580],8x
16,Cc1cccc2c(N(C)CCCN(C)C)nc(-c3cn(Cc4ccc(Cl)cc4)c4c(Cl)cccc34)nc12 [compound 582],8x
17,CNCCCNc1nc(-c2cn(Cc3ccc(Cl)cc3)c3c(Cl)cccc23)nc2c(C)cccc12 [compound 583],4x
18,CN(C)CCCNc1nc(-c2cn(Cc3ccccc3)c3c(Cl)cccc23)nc2cc(Cl)ccc12 [compound 585],8x
19,Cc1cccc2c(NCCCN(C)C)nc(-c3cn(Cc4ccccc4)c4cc(Cl)ccc34)nc12 [compound 586],16x
20,CN(C)CCCNc1nc(-c2csc3ccc(Cl)cc23)nc2c(Cl)cccc12 [compound 592],32x
21,"(S)-2-amino-1-(5-chloro-3-(3,4-dichlorophenyl)-1H-indol-1-yl)butan-1-one methanesulfonate salt [compound 460]",32x
22,"E-1-(5-bromo-3-(3,4-dichlorostyryl)-1H-indol-1-yl)-2-(dimethylamino)ethan-1-one [compound 457]",16x

# Same assay, conditions: compound concentration 10 μM; fold shift of colistin MIC; nc = no changeover or no shift
row,Molecule,"colistin MIC shift, Ab23 at (compd concentration) [x]"
1,Cc1ccc2nc(-c3cc(Br)cc(C(F)(F)F)c3)nc(NCCCN(C)C)c2c1 [compound 516],16
2,FC(F)(F)c1cccc(-c2cccc(-c3n[nH]c4ccc(Cl)cc34)c2)c1 [compound 525],1
3,FC(F)(F)c1ccc2c(-c3cccc(-c4ccc(Cl)c(Cl)c4)c3)n[nH]c2c1 [compound 527],8
4,Fc1cc(-c2cccc(-c3n[nH]c4cc(C(F)(F)F)ccc34)c2)ccc1C(F)(F)F [compound 528],8
5,FC(F)(F)c1cccc(-c2cccc(-c3n[nH]c4cc(C(F)(F)F)ccc34)c2)c1 [compound 529],8
6,FC(F)(F)c1ccc2c(-c3cccc(-c4cc(Cl)cc(Cl)c4)c3)n[nH]c2c1 [compound 530],4
7,Fc1cc(C(F)(F)F)ccc1-c1cccc(-c2n[nH]c3cc(C(F)(F)F)ccc23)c1 [compound 531],4
8,Clc1ccc2[nH]nc(-c3cccc(-c4ccc(Cl)c(Cl)c4)c3)c2c1 [compound 532],4
9,Clc1cccc(Cn2nc(-c3cccc(-c4ccccc4)c3)c3cc(Cl)ccc32)c1 [compound 533],1
10,Fc1ccc2c(-c3cccc(Cl)c3)n[nH]c2c1 [compound 534],1
11,Cc1cccc(-c2n[nH]c3cc(F)ccc23)c1 [compound 535],1
12,FC(F)(F)c1cccc(-c2n[nH]c3cc(C(F)(F)F)ccc23)c1 [compound 536],16
13,N#Cc1cccc(-c2n[nH]c3cc(F)ccc23)c1 [compound 538],1
14,Fc1cc(-c2n[nH]c3ccc(Cl)cc23)ccc1C(F)(F)F [compound 539],4
15,FC(F)(F)c1ccc2c(-c3ccc(Cl)c(Cl)c3)nn(Cc3ccc(Cl)cc3)c2c1 [compound 542],1
16,FC(F)(F)c1ccc2c(-c3ccc(Cl)c(Cl)c3)nn(Cc3cccc(Cl)c3)c2c1 [compound 545],1
17,Fc1cc(-c2n[nH]c3cc(C(F)(F)F)ccc23)ccc1C(F)(F)F [compound 546],1
18,FC(F)(F)c1ccc2c(-c3ccccc3C(F)(F)F)n[nH]c2c1 [compound 547],1
19,FC(F)(F)c1cc(Br)cc(-c2n[nH]c3cc(C(F)(F)F)ccc23)c1 [compound 548],16
20,Fc1ccc(-c2n[nH]c3cc(C(F)(F)F)ccc23)cc1C(F)(F)F [compound 549],32
21,Fc1cc(-c2n[nH]c3cc(C(F)(F)F)ccc23)cc(C(F)(F)F)c1 [compound 550],64
22,FC(F)(F)c1cc(Cl)cc(-c2n[nH]c3cc(C(F)(F)F)ccc23)c1 [compound 551],32
23,COc1cc(-c2n[nH]c3cc(C(F)(F)F)ccc23)cc(C(F)(F)F)c1 [compound 552],8
24,COC(=O)c1cc(-c2n[nH]c3cc(C(F)(F)F)ccc23)cc(C(F)(F)F)c1 [compound 553],1
25,Nc1cc(-c2n[nH]c3cc(C(F)(F)F)ccc23)cc(C(F)(F)F)c1 [compound 554],8
26,FC(F)(F)c1ccc2[nH]nc(-c3ccc(Cl)c(Cl)c3)c2c1 [compound 555],32
27,O=C(c1ccc(Cl)c(Cl)c1)n1nc(-c2ccc(Cl)c(Cl)c2)c2ccc(C(F)(F)F)cc21 [compound 558],1
28,Clc1ccc(-c2n[nH]c3cc(Br)ccc23)cc1Cl [compound 559],8
29,CN(C)CCCNc1nc(-c2cn(Cc3ccccc3)c3c(Cl)cccc23)nc2ccccc12 [compound 563],8
30,Cc1cccc2c(NCCCN(C)C)nc(-c3cn(Cc4ccccc4)c4ccc(Cl)cc34)nc12 [compound 587],16

# Tested on: panel of Gram-negative bacteria with different colistin susceptibilities
# Assay: Fractional inhibitory concentration index (FICI) checkerboard assay with colistin
# Assay type: cell-based
# Details: colistin-resistant A. baumannii
# Description: The fractional inhibitory concentration index (FICI) was determined in combination with colistin using the broth microdilution susceptibility test method as described by the CLSI (Methods for Dilution Antimicrobial Susceptibility Tests for Bacteria That Grow Aerobically; Approved Standard-Ninth Edition. 2012. CLSI document M07-A9. CLIS, 940 West Valley Road, Suite 1400, Wayne, Pa. 19087-1898 USA). This checkerboard assay was set up with decreasing concentrations of colistin across the plate from left to right and decreasing concentrations of potentiator from top to bottom. The FICI values were then calculated using the methods of Lorian et al. (Antibiotics in Laboratory Medicine—Fifth Edition. 2005. Lippincott, Williams, & Wilkins, Philadelphia, Pa.). A panel of Gram-negative bacteria with different colistin susceptibilities were tested.
# Each of the tested compounds synergized with colistin in the three species of colistin-resistant bacteria tested.
row,Molecule,MIC Shift of Colistin and Potentiator in Resistant Bacteria [x]
1,CN(C)CCCNc1nc(-c2cccc(-c3cc(C(F)(F)F)ccc3F)c2)nc2c(C(F)(F)F)cccc12 [IV],133

# Same assay, conditions: colistin-resistant A. baumannii; FICI values of ≦0.5 indicate synergy
row,Molecule,FICI Values of Colistin and Potentiator in Resistant Bacteria
1,CN(C)CCCNc1nc(-c2cccc(-c3cc(C(F)(F)F)ccc3F)c2)nc2c(C(F)(F)F)cccc12 [IV],0.24

# Same assay, conditions: colistin-resistant K. pneumoniae
row,Molecule,MIC Shift of Colistin and Potentiator in Resistant Bacteria [x]
1,CN(C)CCCNc1nc(-c2cccc(-c3cc(C(F)(F)F)ccc3F)c2)nc2c(C(F)(F)F)cccc12 [IV],512

# Same assay, conditions: colistin-resistant K. pneumoniae; FICI values of ≦0.5 indicate synergy
row,Molecule,FICI Values of Colistin and Potentiator in Resistant Bacteria
1,CN(C)CCCNc1nc(-c2cccc(-c3cc(C(F)(F)F)ccc3F)c2)nc2c(C(F)(F)F)cccc12 [IV],0.21

# Same assay, conditions: colistin-resistant P. aeruginosa
row,Molecule,MIC Shift of Colistin and Potentiator in Resistant Bacteria [x]
1,CN(C)CCCNc1nc(-c2cccc(-c3cc(C(F)(F)F)ccc3F)c2)nc2c(C(F)(F)F)cccc12 [IV],33

# Same assay, conditions: colistin-resistant P. aeruginosa; FICI values of ≦0.5 indicate synergy
row,Molecule,FICI Values of Colistin and Potentiator in Resistant Bacteria
1,CN(C)CCCNc1nc(-c2cccc(-c3cc(C(F)(F)F)ccc3F)c2)nc2c(C(F)(F)F)cccc12 [IV],0.27
